Series [1] has as its target 17β-HSD1 (Homo sapiens (Human), UniProt P14061). The series is described as follows: 17β-HSD1 test assay (recombinant protein from Sf9 insect cells, 3H-estrone/NADPH). Type of series: biochemical. The settings on record: for inhibition at 1 µM: read-out: HSD 1 μM (% inhibition of HSD1); for inhibition at 0.1 µM: read-out: HSD1 100 nM (% inhibition). Put shortly:
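Sf9-expressed recombinant enzyme (0.1 μg/ml) with 30 nM 3H-estrone and 1 mM NADPH in 20 mM KH2PO4 pH 7.4, 30 min at RT; inhibitor at 1 μM or 100 nM, 1% DMSO final. Quenched with TCA; conversion measured by reversed-phase HPLC with flow scintillation detection.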

For series [2], the target named is 17β-HSD2 (Homo sapiens (Human), UniProt P37059). The series is described as follows: 17β-HSD2 test assay (recombinant protein from Sf9 insect cells, 3H-estradiol/NAD+). Type of series: biochemical. The settings on record: for inhibition at 0.1 µM: read-out: HSD2 100 nM (% inhibition); for inhibition at 1 µM: read-out: HSD2 1 μM (% inhibition). The method, then: Recombinant protein obtained from Sf9 insect cells (0.1 μg/ml) is incubated with 20 mM KH2PO4, pH 7.4, 30 nM ^3H-estradiol and 1 mM NAD+ for 30 min at RT in the presence of the potential inhibitor in a concentration of 1 μM or 100 nM. The stock solutions of the compounds are prepared in DMSO so that the final concentration of DMSO in the sample is 1%. After the prescribed incubation time, the reaction is quenched by adding trichloroacetic acid (10% final concentration). The samples are centrifuged in microtitration plates at 400 rpm for 10 min, and the supernatants are charged on a reversed-phase HPLC equipped with a Waters Symmetrie C18 column and
17β-HSD2, sequence (P37059 whole entry): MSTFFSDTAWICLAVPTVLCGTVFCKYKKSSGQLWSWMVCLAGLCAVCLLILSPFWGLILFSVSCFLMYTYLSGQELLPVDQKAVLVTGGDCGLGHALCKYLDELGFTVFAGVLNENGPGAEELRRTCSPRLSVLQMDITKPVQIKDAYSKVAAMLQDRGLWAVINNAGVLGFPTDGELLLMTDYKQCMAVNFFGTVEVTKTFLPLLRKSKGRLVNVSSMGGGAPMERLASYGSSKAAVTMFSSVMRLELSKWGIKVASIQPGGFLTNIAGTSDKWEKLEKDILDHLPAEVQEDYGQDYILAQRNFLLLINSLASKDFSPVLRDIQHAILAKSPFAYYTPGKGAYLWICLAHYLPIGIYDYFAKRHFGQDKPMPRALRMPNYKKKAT
Waters Sentry Guard column. The isocratic HPLC run is performed at RT with a flow rate of 1 ml/min and acetonitrile/water 48:52 as the eluent. The radioactivity was measured by means of a Packard Flow Scintillation Analyzer. The percent inhibition was calculated by means of the formulas stated above.

For series [3], the system named is CaCo-2 cells. The series is described as follows: CaCo-2 assay (transport experiments). The class given is in vitro ADME. How it is done:
(§1) Four reference compounds (atenolol, testosterone, ketoprofene and erythromycin) were employed in each assay for evaluating the transport properties of the CaCo-2 cells. The initial concentration of the compounds in the donor compartment was 50 μM (in buffer with 1% ethanol or DMSO). […] For glycoprotein P (P-gp) studies, bidirectional experiments were performed. The absorptive and secretory permeabilities (Papp(a-b) and Papp(b-a)) were determined. Thus, erythromycin was used as a substrate, and verapamil was used as an inhibitor of P-gp. Each experiment was performed in triplicate. The integrity of the monolayer was determined by means of TEER (transepithelial electric resistance) and the permeability for each assay was determined using Lucifer Yellow. All samples of the CaCo-2 transport experiments were analyzed by means of LC/MS/MS after dilution with buffer (1:1 with 2% acetic acid).
(In general: Passage across Caco-2 layers is used to estimate intestinal permeability.)

Series [4] is described as follows: CaCo-2 assay (transport experiments). The settings on record: human, Caco-2; initial donor concentration 50 μM. The class given is in vitro ADME. How it is done:
as §1

Series [5] concerns the target estrogen receptor α (Homo sapiens (Human), UniProt P03372). Nature of the series: Estrogen receptor binding assay, ERα.
Series [6] deals with estrogen receptor β (Homo sapiens (Human), UniProt Q92731). The series is described as follows: Estrogen receptor binding assay, ERβ.
estrogen receptor β, sequence (Q92731 whole entry): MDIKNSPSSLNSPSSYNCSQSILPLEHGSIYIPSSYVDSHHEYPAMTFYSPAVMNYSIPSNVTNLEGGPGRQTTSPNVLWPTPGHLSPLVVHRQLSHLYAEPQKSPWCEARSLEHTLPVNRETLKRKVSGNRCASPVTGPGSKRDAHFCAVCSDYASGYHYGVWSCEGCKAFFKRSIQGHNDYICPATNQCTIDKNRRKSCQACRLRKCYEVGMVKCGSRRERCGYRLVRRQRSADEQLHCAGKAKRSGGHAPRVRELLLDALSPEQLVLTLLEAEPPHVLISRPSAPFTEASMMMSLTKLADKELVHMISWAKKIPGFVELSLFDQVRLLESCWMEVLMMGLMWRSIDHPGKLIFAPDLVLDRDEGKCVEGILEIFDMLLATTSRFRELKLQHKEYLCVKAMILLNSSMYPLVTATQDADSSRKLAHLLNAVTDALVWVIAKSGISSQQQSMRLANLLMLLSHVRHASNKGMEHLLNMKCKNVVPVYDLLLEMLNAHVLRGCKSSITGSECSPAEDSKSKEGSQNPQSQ
A short description of series [7]: In vivo pharmacokinetics (rat), cassette dosing method. The settings on record: cassette dosing perorally 10 mg/kg, male Wistar rats; for AUC(0-t) / Tmax / AUC(0-inf): rat, plasma, po; for AUC(0-inf): extrapolated to ∞. The text has this:
Labrasol/water 1/1). The plasma profiles were established by means of LC-MS/MS.

Where [8] appears, read: relative binding affinity (estradiol: 100%).

Read-outs that look alike come from different tables or passages of the source.

estrogen receptor α, sequence (P03372 whole entry): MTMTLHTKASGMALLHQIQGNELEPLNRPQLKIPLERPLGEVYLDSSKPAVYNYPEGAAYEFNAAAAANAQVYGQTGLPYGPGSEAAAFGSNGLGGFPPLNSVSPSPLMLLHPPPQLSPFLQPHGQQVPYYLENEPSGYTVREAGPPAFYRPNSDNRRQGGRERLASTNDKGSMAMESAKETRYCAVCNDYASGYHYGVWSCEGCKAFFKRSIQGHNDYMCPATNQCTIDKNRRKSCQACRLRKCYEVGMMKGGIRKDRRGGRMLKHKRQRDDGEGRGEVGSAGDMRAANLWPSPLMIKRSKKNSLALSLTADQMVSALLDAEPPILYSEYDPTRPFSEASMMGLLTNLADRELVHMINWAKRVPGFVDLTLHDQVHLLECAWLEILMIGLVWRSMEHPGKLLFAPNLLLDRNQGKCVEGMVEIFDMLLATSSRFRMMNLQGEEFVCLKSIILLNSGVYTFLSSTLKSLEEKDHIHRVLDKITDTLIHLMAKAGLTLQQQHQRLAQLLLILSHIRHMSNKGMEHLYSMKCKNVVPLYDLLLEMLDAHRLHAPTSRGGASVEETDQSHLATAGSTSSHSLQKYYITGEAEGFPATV
17β-HSD1, sequence (P14061 whole entry): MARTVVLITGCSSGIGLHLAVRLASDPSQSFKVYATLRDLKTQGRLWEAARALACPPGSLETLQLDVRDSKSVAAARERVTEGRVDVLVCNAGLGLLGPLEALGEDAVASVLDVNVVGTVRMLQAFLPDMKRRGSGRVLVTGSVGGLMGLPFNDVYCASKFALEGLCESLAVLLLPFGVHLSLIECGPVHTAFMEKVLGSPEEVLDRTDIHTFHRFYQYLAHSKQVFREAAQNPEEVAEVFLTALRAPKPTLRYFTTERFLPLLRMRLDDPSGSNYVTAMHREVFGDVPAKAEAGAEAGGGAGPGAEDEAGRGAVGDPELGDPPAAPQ

In general, inhibition refers to the relative decrease from the control value, in per cent. Usually Papp stands for the rate of passage across a membrane or cell layer, normalised by area and donor concentration. Take `O=C(Nc1ccccc1)c1c(O)ccc2cc(-c3cccc(O)c3)ccc12` [Compound 42, 2-Hydroxy-6-(3-hydroxyphenyl)-N-phenyl-1-naphthamide]: the inhibition at 1 µM in series [1] (inhibitor 1 μM) was 80.2%; in series [2] (inhibitor 1 μM), 16.3%. Moreover, the values for the inhibition at 0.1 µM in series [1] (inhibitor 100 nM) and in series [2] (inhibitor 100 nM) were 40% and less than 10%, respectively. For the same compound, the “mass balance [% ± SD]” value in series [3] is 7.6 ± 0.5%. Moreover, in series [3] (class in words), the Permeability entry is “moderate”. In addition, the “final basolateral concentration [μM ± SD]” value in series [3] (initial donor concentration 50 μM) came to 1.1 ± 0.1 µM. The compound also yielded a Papp at 180 min, 50 μM in series [4] of 1.5 ×10⁻⁶ cm/s.
Take `Oc1cccc(-c2ccc3c(Br)c(O)ccc3c2)c1` [Compound 52, 1-Bromo-6-(3-hydroxyphenyl)naphthalene-2-ol]: in series [5] (setting [8]), the “RBA ERα [%]” value was found to be 0.081%. Also, the inhibition at 1 µM worked out at 88.4% in series [1] (inhibitor 1 μM) and 69% in series [2] (inhibitor 1 μM). Moreover, the inhibition at 0.1 µM was found to be 82.9% in series [1] (inhibitor 100 nM) and 19% in series [2] (inhibitor 100 nM). Also, the “RBA ERβ [%]” value in series [6] (setting [8]) is on record as 0.10%.
With `N#Cc1cc(-c2cccc(O)c2)cc2ccc(O)cc12` [Compound 53, 7-Hydroxy-3-(3-hydroxyphenyl)-1-naphthonitrile], the inhibition at 1 µM in series [1] (inhibitor 1 μM) was found to be 74.4%; in series [2] (inhibitor 1 μM), 67%. For the same compound, the inhibition at 0.1 µM in series [1] (inhibitor 100 nM) was 32.3%; in series [2] (inhibitor 100 nM) it was 18%.
For the compound `CNC(=O)CCc1c(O)ccc2cc(-c3cccc(O)c3)ccc12` [Compound 55, 3-(2-Hydroxy-6-(3-hydroxyphenyl)naphthalene-1-yl)-N-methylpropanamide], the values for the inhibition at 1 µM in series [1] (inhibitor 1 μM) and in series [2] (inhibitor 1 μM) were 80% and 35.8%, respectively. Further, the inhibition at 0.1 µM in series [1] (inhibitor 100 nM) and in series [2] (inhibitor 100 nM) was less than 10% each time.
What is called AUC(0-t) is the area under the concentration-time curve up to a stated or last time point. Lower therefore signals low exposure. One may read the Tmax as the time from dosing to the highest level. One may read the AUC(0-inf) as total exposure, with the tail of the curve extrapolated. As to `Oc1cccc(-c2ccc3c(-c4ccccc4)c(O)ccc3c2)c1` [Compound 56, 6-(3-Hydroxyphenyl)-1-phenyl-2-naphthol], the “RBA ERα [%]” value in series [5] (setting [8]) is 0.055%. Besides, in series [7], the “T1/2z” value is given as 5.9 h, the “tz” value stood at 24.0 h, the AUC(0-t) turned out to be 11700 ng·h/mL and the Tmax was 4 h. For the same compound, in series [7], the area under the curve AUC(0-inf) was 12700 ng·h/mL. Further, the inhibition at 1 µM in series [1] (inhibitor 1 μM) worked out at 89.4%. Further, in series [1] (inhibitor 100 nM), the inhibition at 0.1 µM amounted to 76.2%. The “RBA ERβ [%]” value in series [6] (setting [8]) was found to be 0.044%. The inhibition at 0.1 µM in series [2] (inhibitor 100 nM) came to 22.1%. Moreover, the inhibition at 1 µM in series [2] (inhibitor 1 μM) turned out to be 77.2%.
Consider `Oc1cccc(-c2ccc3c(-c4cccc(O)c4)c(O)ccc3c2)c1` [Compound 57, 1,6-Bis(3-hydroxyphenyl)naphthalene-2-ol], for which the “RBA ERα [%]” value in series [5] (setting [8]) is 0.0013%. Besides, in series [7], the “T1/2z” value amounted to 0.9 h, the “tz” value came to 10.0 h, the AUC(0-t) was determined as 10700 ng·h/mL and the time to peak (Tmax) turned out to be 6 h. Further, the AUC(0-inf) in series [7] is 10700 ng·h/mL. Moreover, the inhibition at 1 µM in series [1] (inhibitor 1 μM) came to 92.6%. Further, the inhibition at 0.1 µM in series [1] (inhibitor 100 nM) was determined as 82.9%. In series [6] (setting [8]), the “RBA ERβ [%]” value was found to be 0.020%. In series [2], the inhibition at 0.1 µM is less than 10% and the inhibition at 1 µM is 40.1%.
In the case of `Oc1cccc(-c2ccc3c(-c4ccoc4)c(O)ccc3c2)c1` [Compound 58, 1-(Furan-3-yl)-6-(3-hydroxyphenyl)naphthalene-2-ol], in series [5], the “RBA ERα [%]” value was 0.022%. Also, the values for the inhibition at 1 µM in series [1] and in series [2] (inhibitor 1 μM) were 89.1% and 92.3%, respectively. Moreover, the inhibition at 0.1 µM in series [1] came to 83%; in series [2] (inhibitor 100 nM), 60.6%. Besides, the “RBA ERβ [%]” value in series [6] was 0.024%.
Turning to `Oc1cccc(-c2ccc3c(-c4ccncc4)c(O)ccc3c2)c1` [Compound 60, 6-(3-Hydroxyphenyl)-1-(pyridin-4-yl)naphthalene-2-ol], the “RBA ERα [%]” value in series [5] (setting [8]) is given as 0.0068%. The inhibition at 1 µM in series [1] stood at 85.9%; in series [2] (inhibitor 1 μM), 48.5%. Besides, the values for the inhibition at 0.1 µM in series [1] and in series [2] (inhibitor 100 nM) were 74.4% and 12.2%, respectively. Besides, the “RBA ERβ [%]” value in series [6] (setting [8]) is reported as 0.003%.
For `Oc1cccc(-c2ccc3c(-c4cncnc4)c(O)ccc3c2)c1` [Compound 61, 6-(3-Hydroxyphenyl)-1-(pyrimidin-5-yl)naphthalene-2-ol], the inhibition at 1 µM in series [1] (inhibitor 1 μM) turned out to be 22.1%; in series [2] (inhibitor 1 μM), 51.7%. Also, the inhibition at 0.1 µM in series [1] (inhibitor 100 nM) was less than 10%; in series [2] (inhibitor 100 nM), 15.5%.
On the same counts, the results for `O=C(O)c1cccc(-c2c(O)ccc3cc(-c4cccc(O)c4)ccc23)c1` [Compound 63, 3-(2-Hydroxy-6-(3-hydroxyphenyl)naphthalene-1-yl)benzoic acid] are 80%, 34.2%, 44.7% and less than 10%.
Take `CS(=O)(=O)Nc1cccc(-c2c(O)ccc3cc(-c4cccc(O)c4)ccc23)c1` [Compound 64, N-(3-(2-Hydroxy-6-(3-hydroxyphenyl)naphthalene-1-yl)phenyl)methanesulfonamide]: in series [5], the “RBA ERα [%]” value is listed as 0.012%. For the same compound, in series [7], the “T1/2z” value was 1.1 h, the “tz” value turned out to be 10.0 h, the exposure AUC(0-t) was 1330 ng·h/mL and the time of peak concentration (Tmax) worked out at 2 h. In addition, in series [7], the AUC(0-inf) was 1330 ng·h/mL. For the same compound, in series [1], the inhibition at 1 µM came out at 90.8% and the inhibition at 0.1 µM was 88.1%. For the same compound, in series [6], the “RBA ERβ [%]” value was determined as 0.007%. For the same compound, the inhibition at 0.1 µM in series [2] (inhibitor 100 nM) came to 31.1%. The inhibition at 1 µM in series [2] (inhibitor 1 μM) stood at 71.3%.
As to `Oc1cccc(-c2ccc3c(-c4ccc(N5CCOCC5)cc4)c(O)ccc3c2)c1` [Compound 65, 6-(3-Hydroxyphenyl)-1-(4-morpholinophenyl)naphthalene-2-ol], the results for the inhibition at 1 µM in series [1] (inhibitor 1 μM) and in series [2] (inhibitor 1 μM) were 64.9% and 31.9%, respectively. The inhibition at 0.1 µM in series [1] (inhibitor 100 nM) is 31.9%; in series [2] (inhibitor 100 nM), 12.4%.
As for `CC(=O)Nc1cccc(-c2c(O)ccc3cc(-c4cccc(O)c4)ccc23)c1` [Compound 66, N-(3-(2-Hydroxy-6-(3-hydroxyphenyl)naphthalene-1-yl)phenyl)acetamide], the inhibition at 1 µM in series [1] (inhibitor 1 μM) stood at 81.5%; in series [2] (inhibitor 1 μM), 63.6%. The inhibition at 0.1 µM was 35.1% in series [1] (inhibitor 100 nM) and 24.1% in series [2] (inhibitor 100 nM).
On the same counts, the results for `O=C(O)CCC(=O)Nc1ccc(-c2c(O)ccc3cc(-c4cccc(O)c4)ccc23)cc1` [Compound 67, 4-(4-(2-Hydroxy-6-(3-hydroxyphenyl)naphthalene-1-yl)phenylamino)-4-oxobutanoic acid] are 62.3%, 68%, less than 10% and 24.2%.
With `O=S(=O)(Nc1nccs1)c1cccc(-c2c(O)ccc3cc(-c4cccc(O)c4)ccc23)c1` [Compound 69, 3-(2-Hydroxy-6-(3-hydroxyphenyl)naphthalene-1-yl)-N-(thiazol-2-yl)-benzenesulfonamide], the “RBA ERα [%]” value in series [5] (setting [8]) came out at 0.015%. Besides, the inhibition at 1 µM stood at 96.3% in series [1] (inhibitor 1 μM) and 71% in series [2] (inhibitor 1 μM). For the same compound, the inhibition at 0.1 µM amounted to 87% in series [1] (inhibitor 100 nM) and 24% in series [2] (inhibitor 100 nM). For the same compound, the “RBA ERβ [%]” value in series [6] (setting [8]) is recorded as 0.010%.

(Values after patent US8546392B2, “17Beta-hydroxysteroid dehydrogenase type 1 inhibitors for the treatment of hormone-related diseases” (Universitaet des Saarlandes, priority 2008, dated 2013).)
